Reference: patent publication US10479780B2, “Aminopyrazole derivatives” (Chugai Seiyaku Kabushiki Kaisha, priority 2015, dated 2019)

Key:
Format in all cases: biochemical
human Yes1 enzyme = biological target: T1, human Yes1 enzyme (Homo sapiens, UniProt P07947); assay: Yes1 enzyme inhibitory activity (time-resolved fluorometry, biotinylated peptide phosphorylation); conditions: biotinylated peptide phosphorylation, read-out: YES_IC50
T1 construct: made in house
In short: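 Inhibition was expressed against a compound-free control to give IC50, using TR-FRET read-out (Eu-cryptate anti-pTyr antibody, streptavidin-XL665).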

human Src enzyme = biological target: T2, human Src enzyme (Homo sapiens, UniProt P12931); assay: Src enzyme inhibitory activity (time-resolved fluorometry, biotinylated peptide phosphorylation); conditions: biotinylated peptide phosphorylation, read-out: SRC_IC50
T2 construct: purchased Carna Biosciences, Inc. 08-173
In short: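 Compounds were tested for blocking tyrosine phosphorylation of a biotinylated peptide substrate by recombinant human Src. Phosphorylated product was quantified by time-resolved fluorometry using europium cryptate and XL665 conjugates, and IC50 was calculated against the compound-free control.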

human Lck enzyme = biological target: T3, human Lck enzyme (Homo sapiens, UniProt P06239); assay: Lck enzyme inhibitory activity (time-resolved fluorometry, biotinylated peptide phosphorylation); conditions: biotinylated peptide phosphorylation, read-out: LCK_IC50
T3 construct: purchased Carna Biosciences, Inc. 08-170
In short: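 Readout pairs a europium cryptate-labelled anti-phosphotyrosine antibody with XL665-streptavidin, measured by time-resolved fluorescence. IC50 derived from percent inhibition against untreated controls.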

T3 sequence (P06239 whole entry): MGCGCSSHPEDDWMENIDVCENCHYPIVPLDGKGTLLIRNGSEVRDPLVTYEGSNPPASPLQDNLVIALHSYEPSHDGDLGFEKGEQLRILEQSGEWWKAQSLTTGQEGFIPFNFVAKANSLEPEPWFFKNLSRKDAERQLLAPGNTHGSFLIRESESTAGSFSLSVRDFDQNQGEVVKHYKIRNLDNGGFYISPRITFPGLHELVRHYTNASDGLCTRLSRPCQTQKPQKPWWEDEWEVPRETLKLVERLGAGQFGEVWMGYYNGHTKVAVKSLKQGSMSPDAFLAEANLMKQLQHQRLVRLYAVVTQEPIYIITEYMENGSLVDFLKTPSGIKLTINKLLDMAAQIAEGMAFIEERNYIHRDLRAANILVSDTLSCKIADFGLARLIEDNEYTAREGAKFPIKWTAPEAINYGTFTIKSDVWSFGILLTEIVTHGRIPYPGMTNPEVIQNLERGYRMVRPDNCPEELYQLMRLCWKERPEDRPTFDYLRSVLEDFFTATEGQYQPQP
T2 sequence (P12931 whole entry): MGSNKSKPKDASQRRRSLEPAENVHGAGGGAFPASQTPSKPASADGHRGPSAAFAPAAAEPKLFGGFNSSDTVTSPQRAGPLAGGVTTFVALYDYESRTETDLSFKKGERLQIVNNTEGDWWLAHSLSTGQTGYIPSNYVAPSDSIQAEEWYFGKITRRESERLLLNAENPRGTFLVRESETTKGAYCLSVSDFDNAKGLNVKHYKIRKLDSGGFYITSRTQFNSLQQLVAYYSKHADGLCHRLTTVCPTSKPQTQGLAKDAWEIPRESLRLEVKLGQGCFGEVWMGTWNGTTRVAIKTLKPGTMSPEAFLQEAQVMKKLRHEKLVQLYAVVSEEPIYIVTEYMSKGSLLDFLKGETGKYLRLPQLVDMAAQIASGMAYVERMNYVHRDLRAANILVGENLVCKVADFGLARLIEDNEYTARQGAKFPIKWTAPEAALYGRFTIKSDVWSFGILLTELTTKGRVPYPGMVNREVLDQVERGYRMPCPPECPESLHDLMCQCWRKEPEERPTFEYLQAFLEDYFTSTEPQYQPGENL
T1 sequence (P07947 whole entry): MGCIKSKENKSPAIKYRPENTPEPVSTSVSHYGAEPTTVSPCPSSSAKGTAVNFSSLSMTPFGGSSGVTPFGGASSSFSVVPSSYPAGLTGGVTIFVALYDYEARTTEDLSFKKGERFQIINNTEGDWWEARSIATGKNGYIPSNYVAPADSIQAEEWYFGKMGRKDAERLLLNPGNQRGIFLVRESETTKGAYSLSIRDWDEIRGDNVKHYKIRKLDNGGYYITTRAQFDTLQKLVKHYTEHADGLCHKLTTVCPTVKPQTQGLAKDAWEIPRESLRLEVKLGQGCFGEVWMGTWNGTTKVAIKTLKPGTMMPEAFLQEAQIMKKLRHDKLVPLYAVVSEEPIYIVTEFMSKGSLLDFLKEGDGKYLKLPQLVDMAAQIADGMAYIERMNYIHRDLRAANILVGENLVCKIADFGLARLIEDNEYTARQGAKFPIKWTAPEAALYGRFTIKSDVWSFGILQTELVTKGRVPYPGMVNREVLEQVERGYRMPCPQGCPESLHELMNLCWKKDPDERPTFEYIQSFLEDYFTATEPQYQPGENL

| SMILES | IC50 (human Yes1 enzyme) | IC50 (human Src enzyme) | IC50 (human Lck enzyme) |
| --- | --- | --- | --- |
| COc1cc2cc(C(=O)c3cnn(-c4cnc(Oc5c(F)cccc5F)cc4C)c3N)[nH]c2cc1NS(=O)(=O)CCCF [Example 4-19-001, N-(2-(5-amino-1-(6-(2,6-difluorophenoxy)-4-methylpyridin-3-yl)-1H-pyrazole-4-carbonyl)-5-methoxy-1H-indol-6-yl)-3-fluoropropane-1-sulfonamide] | 0.83 nM | 28 nM | 3.9 nM |
| Cc1cc(Oc2cccc(F)c2F)ccc1-n1ncc(C(=O)c2cc3cc(F)c(NS(N)(=O)=O)cc3[nH]2)c1N [Example 4-20-002, 2-[5-amino-1-[4-(2,3-difluorophenoxy)-2-methylphenyl]pyrazole-4-carbonyl]-5-fluoro-6-(sulfamoylamino)-1H-indole] | 1 nM | 50 nM | 8.3 nM |
| Cc1cc(-n2ncc(C(=O)c3cc4cc(F)c(NS(N)(=O)=O)cc4[nH]3)c2N)ccc1Oc1ccccc1F [Example 4-20-003, 2-[5-amino-1-[4-(2-fluorophenoxy)-3-methylphenyl]pyrazole-4-carbonyl]-5-fluoro-6-(sulfamoylamino)-1H-indole] | 1.4 nM | 15 nM | 2.1 nM |
| Cc1cc(Oc2c(F)cccc2F)ncc1-n1ncc(C(=O)c2cc3cc(OCC(F)F)c(N4CCCC4=O)cc3[nH]2)c1N [Example 4-21-001, 1-{2-{5-amino-1-[6-(2,6-difluorophenoxy)-4-methylpyridin-3-yl]pyrazole-4-carbonyl}-5-(2,2-difluoroethoxy)-1H-indol-6-yl}pyrrolidin-2-one] | 3.7 nM | 13 nM | 6.2 nM |
| Cc1cc(Oc2c(F)cccc2F)ncc1-n1ncc(C(=O)c2cc3cc(OCC(F)F)c(N4CCOC4=O)cc3[nH]2)c1N [Example 4-21-005, 3-[2-[5-amino-1-[6-(2,6-difluorophenoxy)-4-methylpyridin-3-yl]pyrazole-4-carbonyl]-5-(2,2-difluoroethoxy)-1H-indol-6-yl]-1,3-oxazolidin-2-one] | 1.2 nM | 11 nM | 4.3 nM |
| Cc1cc(Oc2c(F)cccc2F)ncc1-n1ncc(C(=O)c2cc3cc(OC(F)F)c(N4CCCC4=O)cc3[nH]2)c1N [Example 4-21-008, 1-[2-[5-amino-1-[6-(2,6-difluorophenoxy)-4-methylpyridin-3-yl]pyrazole-4-carbonyl]-5-(difluoromethoxy)-1H-indol-6-yl]pyrrolidin-2-one] | 4.1 nM | 25 nM | 6.6 nM |
| Cc1cc(Oc2c(F)cccc2F)ncc1-n1ncc(C(=O)c2cc3cc(OC(F)F)c(N4CCOC4=O)cc3[nH]2)c1N [Example 4-21-009, 3-[2-[5-amino-1-[6-(2,6-difluorophenoxy)-4-methylpyridin-3-yl]pyrazole-4-carbonyl]-5-(difluoromethoxy)-1H-indol-6-yl]-1,3-oxazolidin-2-one] | 0.83 nM | 9.9 nM | 2.7 nM |
| Cc1cc(Oc2c(F)cccc2F)ncc1-n1ncc(C(=O)c2cc3cc(OC(F)F)c(NS(=O)(=O)N4CCOCC4)cc3[nH]2)c1N [Example 4-22-003, N-[2-[5-amino-1-[6-(2,6-difluorophenoxy)-4-methylpyridin-3-yl]pyrazole-4-carbonyl]-5-(difluoromethoxy)-1H-indol-6-yl]morpholine-4-sulfonamide] | 2.9 nM | 170 nM | 62 nM |
| Cc1cc(Oc2ccccc2F)ncc1-n1ncc(C(=O)c2cc3cc(N4CCOCC4)c(NS(=O)(=O)N4CCOCC4)cc3[nH]2)c1N [Example 4-22-004, N-[2-[5-amino-1-[6-(2-fluorophenoxy)-4-methylpyridin-3-yl]pyrazole-4-carbonyl]-5-morpholin-4-yl-1H-indol-6-yl]morpholine-4-sulfonamide] | 1.2 nM | 360 nM | 78 nM |
| Cc1cc(Oc2c(F)cccc2F)ncc1-n1ncc(C(=O)c2cc3cc(OCC(F)F)c(N4CCN(S(C)(=O)=O)CC4)cc3[nH]2)c1N [Example 4-23-001, {5-amino-1-[6-(2,6-difluorophenoxy)-4-methylpyridin-3-yl]pyrazol-4-yl}-[5-(2,2-difluoroethoxy)-6-(4-methylsulfonylpiperazin-1-yl)-1H-indol-2-yl]methanone] | 1.3 nM | 16 nM | 8.2 nM |

More lines, now with the values ahead:

| IC50 (human Yes1 enzyme) | IC50 (human Src enzyme) | IC50 (human Lck enzyme) | SMILES |
| --- | --- | --- | --- |
| 4.8 nM | 23 nM | 11 nM | Cc1cc(Oc2c(F)cccc2F)ncc1-n1ncc(C(=O)c2cc3cc(OC(F)F)c(C4CCN(C(=O)CN)CC4)cc3[nH]2)c1N [Example 4-18-003, 2-amino-1-[4-[2-[5-amino-1-[6-(2,6-difluorophenoxy)-4-methylpyridin-3-yl]pyrazole-4-carbonyl]-5-(difluoromethoxy)-1H-indol-6-yl]piperidin-1-yl]ethanone] |
| 1.6 nM | 16 nM | 9.2 nM | Cc1cc(Oc2ccccc2F)ccc1-n1ncc(C(=O)c2cc3cc(OCC(F)F)c(C4CCN(C(=O)CN)CC4)cc3[nH]2)c1N [Example 4-18-004, 2-amino-1-[4-[2-[5-amino-1-[4-(2-fluorophenoxy)-2-methylphenyl]pyrazole-4-carbonyl]-5-(2,2-difluoroethoxy)-1H-indol-6-yl]piperidin-1-yl]ethanone] |
| 0.64 nM | 31 nM | 3.5 nM | Cc1cc(Oc2ccccc2F)ccc1-n1ncc(C(=O)c2cc3cc(F)c(NS(N)(=O)=O)cc3[nH]2)c1N [Example 4-20-001, 2-[5-amino-1-[4-(2-fluorophenoxy)-2-methylphenyl]pyrazole-4-carbonyl]-5-fluoro-6-(sulfamoylamino)-1H-indole] |
| 0.89 nM | 5.4 nM | 2.8 nM | Cc1cc(Oc2ccccc2F)ccc1-n1ncc(C(=O)c2cc3cc(OCC(F)F)c(N4CCCC4=O)cc3[nH]2)c1N [Example 4-21-002, 1-[2-[5-amino-1-[4-(2-fluorophenoxy)-2-methylphenyl]pyrazole-4-carbonyl]-5-(2,2-difluoroethoxy)-1H-indol-6-yl]pyrrolidin-2-one] |
| 0.53 nM | 2.4 nM | 1.5 nM | Cc1cc(Oc2ccccc2F)ccc1-n1ncc(C(=O)c2cc3cc(OCC(F)F)c(N4CCOC4=O)cc3[nH]2)c1N [Example 4-21-003, 3-[2-[5-amino-1-[4-(2-fluorophenoxy)-2-methylphenyl]pyrazole-4-carbonyl]-5-(2,2-difluoroethoxy)-1H-indol-6-yl]-1,3-oxazolidin-2-one] |
| 1 nM | 9.2 nM | 3 nM | Cc1cc(Oc2ccccc2F)cc(F)c1-n1ncc(C(=O)c2cc3cc(OCC(F)F)c(N4CCCC4=O)cc3[nH]2)c1N [Example 4-21-004, 1-[2-[5-amino-1-[2-fluoro-4-(2-fluorophenoxy)-6-methylphenyl]pyrazole-4-carbonyl]-5-(2,2-difluoroethoxy)-1H-indol-6-yl]pyrrolidin-2-one] |
| 1.6 nM | 17 nM | 5.5 nM | Cc1cc(Oc2ccccc2F)ccc1-n1ncc(C(=O)c2cc3cc(OC(F)F)c(N4CCCC4=O)cc3[nH]2)c1N [Example 4-21-006, 1-[2-[5-amino-1-[4-(2-fluorophenoxy)-2-methylphenyl]pyrazole-4-carbonyl]-5-(difluoromethoxy)-1H-indol-6-yl]pyrrolidin-2-one] |
| 0.51 nM | 8.7 nM | 6.5 nM | Cc1cc(Oc2ccccc2F)ccc1-n1ncc(C(=O)c2cc3cc(OC(F)F)c(N4CCOC4=O)cc3[nH]2)c1N [Example 4-21-007, 3-[2-[5-amino-1-[4-(2-fluorophenoxy)-2-methylphenyl]pyrazole-4-carbonyl]-5-(difluoromethoxy)-1H-indol-6-yl]-1,3-oxazolidin-2-one] |
| 2.6 nM | 90 nM | 34 nM | Cc1cc(Oc2ccccc2F)ccc1-n1ncc(C(=O)c2cc3cc(OC(F)F)c(NS(=O)(=O)N4CCOCC4)cc3[nH]2)c1N [Example 4-22-001, N-(2-(5-amino-1-(4-(2-fluorophenoxy)-2-methylphenyl)-1H-pyrazole-4-carbonyl)-5-(difluoromethoxy)-1H-indol-6-yl)morpholine-4-sulfonamide] |
| 3 nM | 240 nM | 68 nM | Cc1cc(Oc2ccccc2F)ncc1-n1ncc(C(=O)c2cc3cc(OC(F)F)c(NS(=O)(=O)N4CCOCC4)cc3[nH]2)c1N [Example 4-22-002, N-[2-[5-amino-1-[6-(2-fluorophenoxy)-4-methylpyridin-3-yl]pyrazole-4-carbonyl]-5-(difluoromethoxy)-1H-indol-6-yl]morpholine-4-sulfonamide] |
| 1.8 nM | 44 nM | 20 nM | Cc1cc(Oc2ccccc2F)ccc1-n1ncc(C(=O)c2cc3cc(OCC(F)F)c(NS(=O)(=O)N4CCOCC4)cc3[nH]2)c1N [Example 4-22-005, N-[2-[5-amino-1-[4-(2-fluorophenoxy)-2-methylphenyl]pyrazole-4-carbonyl]-5-(2,2-difluoroethoxy)-1H-indol-6-yl]morpholine-4-sulfonamide] |
| 1.9 nM | 130 nM | 51 nM | Cc1cc(Oc2ccccc2F)ncc1-n1ncc(C(=O)c2cc3cc(OCC(F)F)c(NS(=O)(=O)N4CCOCC4)cc3[nH]2)c1N [Example 4-22-006, N-[2-[5-amino-1-[6-(2-fluorophenoxy)-4-methylpyridin-3-yl]pyrazole-4-carbonyl]-5-(2,2-difluoroethoxy)-1H-indol-6-yl]morpholine-4-sulfonamide] |
